US5677342A, “Phenoxy acetic acids as aldose reductase inhibitors and antihyperglycemic agents” (American Home Products Corporation, priority 1996, dated 1997)

Key:
[1] = biological target: T1, bovine lens aldose reductase (Bos taurus, UniProt P16116); assay: In vitro Inhibition of Aldose Reductase in the Bovine Lens; assay type: biochemical; details: DL-glyceraldehyde as substrate; for inhibition at 0.04 µM: dose 4 × 10^-8 M; for inhibition at 0.1 µM: dose 10^-7 M
T1 construct: preparation of the enzyme from bovine lens; from tissue; host or cells: bovine lens
Experimental: I. In vitro Inhibition of Aldose Reductase in the Bovine Lens
The aldose reductase inhibiting effects of the compounds of formula I were tested by employing an in vitro testing procedure similar to that described by S. Hayman and J. H. Kinoshita, J. Biol. Chem., 240, 877 (1965) wherein the abilitty of the invention compounds to inhibit bovine lens aldose reductase with DL-glyceraldehyde as the substrate was determined. In the present case the procedure of Hayman and Kinoshita was modified in that the final chromatography step was omitted in the preparation of the enzyme from bovine lens.

ob/ob mice = assay: Determination of Blood Glucose Lowering Effect in ob/ob mice; assay type: in vivo, ob/ob mice (C57B1/6J); details: 100 mg/kg, p.o.
Experimental: 3. Determination of Blood Glucose Lowering Effect in ob/ob mice
Male or female ob/ob mice (C57B1/6J), ages 2 to 5 months (10 to 65 g), of a similar age are randomized according to plasma glucose into 4 groups of 10 mice. The mice are housed 5 per cage and are maintained on normal rodent chow with water ad libitum. The mice receive test compound daily. The test compound is suspended in 0.5 mL of 0.5% methyl cellulose and is administered by gavage (dissolved in drinking water) or admixed in the diet. The dose of compound given ranges from 2.5 to 200 mg/kg/day. Body weight of fed animals is measured at the beginning of each week and doses for the entire week are calculated using this weight and are expressed in terms of the active moiety of the compound. Control mice receive vehicle only.
On the morning of Days 4, 7 or 14 two drops of blood (approximately 50 μl) are collected into sodium fluoride containing tubes either from the tail vein or after decapitation. […] The plasma is isolated by centrifugation and the concentration of glucose is measured enzymatically on an Abbott V. P. Analyzer and the plasma concentration of insulin is determined by radioimmunoassay (Heding, 1972). For each mouse, the percentage change in plasma glucose on Day 4, 7 or 14 is calculated relative to the mean plasma glucose of the vehicle treated mice. […]

diabetic db/db mice = assay: Determination of Blood Glucose Lowering in Diabetic db/db Mice; assay type: in vivo, male diabetic db/db (C57BL/KsJ) mice; details: p.o.; for plasma glucose lowering compared with ciglitazone / % Change glucose: 100 mg/kg; for plasma glucose lowering compared with ciglitazone: in words; for % Change glucose: plasma glucose Day 4 (mean of 2 and 4 hr samples) vs Day 1 baseline
Experimental: 2. Determination of Blood Glucose Lowering in Diabetic db/db Mice. On the morning of Day 1, 35 mice [male diabetic db/db (C57BL/KsJ) mice (Jackson Laboratories), 2-7 months of age and 50-70 g] were fasted for 4 hours, weighed and a baseline blood sample (15-30 μl) was collected from the tail-tip of each mouse without anesthesia, and placed directly into a fluoride-containing tube, mixed and maintained on ice. Food was then returned to the mice. The plasma was separated and levels of glucose in plasma determined by the Abbott VP Analyzer. Because of the variable plasma glucose levels of the db/db mice, 5 mice having the most extreme (i.e., highest or lowest) plasma glucose levels were excluded and the remaining 30 mice were randomly assigned into 7 groups of equivalent mean plasma glucose levels (N=6 for vehicle and N=4 for each drug group). On the afternoon of Days 1, 2 and 3, the vehicle, control or test drugs were administered (p.o.) to the ad libitum fed mice. On the morning of Day 4, the mice were weighed and food removed, but water was available ad libitum. Three hours later, a blood sample was collected and then the mice were given the fourth administration of drug or vehicle. Blood samples were collected again from the unanesthetized mice at 2 and 4 hours after drug administration. The plasma was separated and levels of glucose in plasma was determined by the Abbott VP Analyzer. For each mouse, the percent change of its plasma glucose level on Day 4 (mean of the 2 and 4 hr samples) from respective level before drug administration (Day 1 baseline sample) is determined as follows: [formula] Analysis of variance followed by Dunnett's multiple comparison (one-sided) will be used to estimate the 'degree of statistical significance of the difference between the vehicle control group and the individual drug-treated groups. A drug will be considered active, at the specific dosage administered, if the difference of the plasma glucose level has a p<0.05.

Question: For `Cc1c(Cl)c(OCC(=O)O)c(Cc2ccc3c(Cl)cccc3c2)c(O)c1C=O` [Example 1, [2-chloro-6-(5-chloro-naphthalen-2-ylmethyl)-4-formyl-5-hydroxy-3-methyl-phenoxy]-acetic acid], which inhibition at 0.04 µM [1] is on record?
Answer: Its inhibition at 0.04 µM is 49%.

Question: And the “% Change glucose” value (ob/ob mice; plasma glucose on Day 4, 7 or 14 relative to vehicle mean)?
Answer: Its value is -24%.

Question: And the “% Change insulin” value (ob/ob mice; plasma insulin by radioimmunoassay, Day 4, 7 or 14)?
Answer: The value was -38%.

Question: What about the “plasma glucose lowering compared with ciglitazone” value (diabetic db/db mice) of the same compound?
Answer: Its value is “comparable with the results for ciglitazone”.

Question: And the “% Change glucose” value (diabetic db/db mice)?
Answer: The value was -19%.

Question: With `O=Cc1ccc(OCC(=O)O)c(Cc2ccc3ccccc3c2)c1O` [Example 2, (4-formyl-3-hydroxy-2-naphthalen-2-ylmethyl-phenoxy)-acetic acid] as the compound, how does the inhibition at 0.1 µM [1] read?
Answer: The inhibition at 0.1 µM was 34%.

Question: And the “plasma glucose lowering compared with ciglitazone” value (diabetic db/db mice)?
Answer: The value was “comparable with the results for ciglitazone”.

Question: What about the “% Change glucose” value (diabetic db/db mice) of the same compound?
Answer: Its value is -23%.

Question: How did the inhibition at 1 µM ([1]; dose 10^-6 M) turn out when `O=Cc1ccc(OCC(=O)O)c(Cc2cccc3ccccc23)c1O` [Example 3, (4-formyl-3-hydroxy-2-naphthalen-1-ylmethyl-phenoxy)-acetic acid] was run?
Answer: Its inhibition at 1 µM is 53%.

Question: Which inhibition at 0.04 µM [1] does the source give for `O=Cc1ccc(OCC(=O)O)c(Cc2ccc3c(Cl)cccc3c2)c1O` [Example 4, [2-(5-chloro-naphthalen-2-ylmethyl)-4-formyl-3-hydroxy-phenoxy]-acetic acid] here?
Answer: Its inhibition at 0.04 µM is 78%.

Question: Which inhibition at 0.04 µM [1] does the source give for `O=Cc1ccc(OCC(=O)O)c(Cc2ccc3c(Br)cccc3c2)c1O` [Example 5, [2-(5-bromo-naphthalen-2-ylmethyl)-4-formyl-3-hydroxy-phenoxy]-acetic acid] here?
Answer: The inhibition at 0.04 µM was 84%.

Question: `O=Cc1ccc(OCC(=O)O)c(Cc2ccc3ccccc3c2Br)c1O` [Example 6, [2-(1-bromo-naphthalen-2-ylmethyl)-4-formyl-3-hydroxy-phenoxy]-acetic acid] was tested. Which inhibition at 0.04 µM [1] did it give?
Answer: Its inhibition at 0.04 µM is 78%.

Question: How did the inhibition at 0.04 µM [1] turn out when `COc1c(C=O)ccc(OCC(=O)O)c1Cc1ccc2c(Cl)cccc2c1` [Example 7, [2-(5-chloro-naphthalen-2-ylmethyl)-4-formyl-3-methoxy-phenoxy]-acetic acid] was run?
Answer: The inhibition at 0.04 µM was 83%.

Question: `COc1cc(OCC(=O)O)c(Cc2ccc3c(Cl)cccc3c2)c(O)c1C=O` [Example 8, [2-(5-chloro-naphthalen-2-ylmethyl)-4-formyl-3-hydroxy-5-methoxy-phenoxy]-acetic acid] was tested. Which inhibition at 0.04 µM [1] did it give?
Answer: The inhibition at 0.04 µM was 81%.

Question: With `Cc1cc(OCC(=O)O)c(Cc2ccc3c(Cl)cccc3c2)c(O)c1C=O` [Example 9, [2-(5-chloro-naphthalen-2-ylmethyl)-4-formyl-3-hydroxy-5-methyl-phenoxy]-acetic acid] as the compound, how does the inhibition at 0.04 µM [1] read?
Answer: The inhibition at 0.04 µM was 89%.

Question: For `O=Cc1cc(Cl)c(OCC(=O)O)c(Cc2ccc3c(Cl)cccc3c2)c1O` [Example 10, [6-chloro-2-(5-chloro-naphthalen-2-ylmethyl)-4-formyl-3-hydroxy-phenoxy]-acetic acid], which inhibition at 0.1 µM [1] is on record?
Answer: Its inhibition at 0.1 µM is 36%.

Question: Which “decrease in plasma glucose levels (average)” value (diabetic db/db mice; positive control, 100 mg/kg/day × 4 days, average) does the source give for `CC1(COc2ccc(CC3SC(=O)NC3=O)cc2)CCCCC1` (stereo not drawn) [ciglitazone, reference compound] here?
Answer: The value was 26%.

Question: And the “decrease in plasma glucose levels” value (diabetic db/db mice; positive control, 100 mg/kg/day × 4 days, range)?
Answer: The value was 18 to 34%.
